Target: T1, His-His-USP7 (aa208-560, |C315A|) (Homo sapiens, UniProt Q93009, C315A)
T1 construct: His-His-USP7 (aa208-560, |C315A|); His-His (N)
Experiment: Evaluation of the inhibition of USP7 by the Fluorescence Intensity (FLINT) readings
Assay type: biochemical
Details: 0.25 nM His-His-USP7, compound incubated 60 minutes at 30° C., 500 nM Ubiquitin-Rhodamine-110 substrate; 50% reduction in kinetic rate
Procedure: USP7 activity was measured using Rhodamine-110 c-terminal labelled Ubiquitin as a substrate (UbiQ Bio). Incubation with USP7 results in the release of Rhodamine-110 leading to an increase in fluorescence which can be used in the continuous measurement of USP7 activity.
The USP7 reactions were performed in a 50 μL volume, in 384 well black solid low binding plates (Corning #3575). The reaction buffer consisted of 100 mM Bicine pH 8.0, 0.01% TritonX100, 1 mM TCEP, and 10% DMSO.
0.25 nM His-His-USP7 (aa208-560, |C315A|) was incubated with compound (final concentration 10% DMSO) for 60 minutes at 30° C. The reaction was then initiated by the addition of 500 nM Ubiquitin-Rhodamme-110 substrate and the plate read every 3 minutes for 21 minutes to measure the release of Rhodamine-110. Fluorescence Intensity (FLINT) readings were measured using a […] plate reader (Ex.485 nm, Em.535 nm).
The inhibition of increasing doses of compound was expressed as a percentage reduction in kinetic rate compared to the kinetic rates established between ‘DMSO only’ and ‘total inhibition’ controls (no USP7). The inhibitory concentrations that gave a 50% reduction in kinetic rate (IC50) were determined, from 11-point dose response cures, in XL-Fit using a 4-Parameter Logistic Model 205 (Sigmoidal Dose-Response Model).

T1 sequence (Q93009 208-560 C315A): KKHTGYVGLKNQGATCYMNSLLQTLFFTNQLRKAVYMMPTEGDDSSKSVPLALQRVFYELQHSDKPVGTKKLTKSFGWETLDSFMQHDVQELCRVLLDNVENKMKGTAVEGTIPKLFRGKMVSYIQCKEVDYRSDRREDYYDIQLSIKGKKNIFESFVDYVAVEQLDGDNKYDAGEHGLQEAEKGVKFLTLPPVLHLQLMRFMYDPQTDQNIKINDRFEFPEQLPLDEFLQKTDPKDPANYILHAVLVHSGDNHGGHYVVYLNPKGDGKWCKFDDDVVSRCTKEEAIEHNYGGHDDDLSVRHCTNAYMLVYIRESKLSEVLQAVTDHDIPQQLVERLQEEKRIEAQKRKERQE

Row | Structure (SMILES) | IC50
1 | Nc1c(Oc2cc(F)cc(F)c2)ncn(CC2(O)CCN(C(=O)[C@@H]3CCC(F)(F)C[C@H]3c3ccccc3)CC2)c1=O [Example 8, 5-amino-6-(3,5-difluorophenoxy)-3-({1-[(1R,2R)-4,4-difluoro-2-phenylcyclohexane-1-carbonyl]-4-hydroxypiperidin-4-yl}methyl)pyrimidin-4(3H)-one] | 472 nM
2 | Nc1c(Oc2ccc(CNc3ccccc3)cc2)ncn(CC2(O)CCN(C(=O)[C@@H]3CCC(F)(F)C[C@H]3c3ccccc3)CC2)c1=O [Example 70, 5-amino-6-[4-(anilinomethyl)phenoxy]-3-({1-[(1R,2R)-4,4-difluoro-2-phenylcyclohexane-1-carbonyl]-4-hydroxypiperidin-4-yl}methyl)pyrimidin-4(3H)-one] | 134 nM
3 | Nc1c(Oc2ccc(F)cc2)ncn(CC2(O)CCN(C(=O)[C@@H]3CC[C@](F)(C#Cc4ccccc4)C[C@H]3c3ccccc3)CC2)c1=O [Example 135, 5-amino-3-({1-[(1R,2R,4R)-4-fluoro-2-phenyl-4-(2-phenylethynyl)cyclohexanecarbonyl]-4-hydroxypiperidin-4-yl}methyl)-6-(4-fluorophenoxy)-3,4-dihydropyrimidin-4-one] | 36.4 nM
4 | Nc1c(Oc2ccc(CCCO)cc2)ncn(CC2(O)CCN(C(=O)[C@@H]3CCC(F)(F)C[C@H]3c3ccccc3)CC2)c1=O [Example 29, 5-amino-3-({1-[(1R,2R)-4,4-difluoro-2-phenylcyclohexane-1-carbonyl]-4-hydroxypiperidin-4-yl}methyl)-6-[4-(3-hydroxypropyl)phenoxy]pyrimidin-4(3H)-one] | 175 nM
5 | Nc1c(Oc2cccc(C3CCCCN3)c2)ncn(CC2(O)CCN(C(=O)[C@@H]3CCC(F)(F)C[C@H]3c3ccccc3)CC2)c1=O (stereo partly drawn) [Example 47, 5-amino-3-({1-[(1R,2R)-4,4-difluoro-2-phenylcyclohexane-1-carbonyl]-4-hydroxypiperidin-4-yl}methyl)-6-[3-(piperidin-2-yl)phenoxy]pyrimidin-4(3H)-one] | 8.81 nM
6 | NC(=O)c1ccc(Oc2ncn(CC3(O)CCN(C(=O)[C@@H]4CCC(F)(F)C[C@H]4c4ccccc4)CC3)c(=O)c2N)c(Cl)c1 [Example 107, 4-{[5-amino-1-({1-[(1R,2R)-4,4-difluoro-2-phenylcyclohexane-1-carbonyl]-4-hydroxypiperidin-4-yl}methyl)6-oxo-1,6-dihydropyrimidin-4-yl]oxy}-3-chlorobenzamide] | 479 nM
7 | Nc1c(Oc2ccc(F)c(OC(F)(F)F)c2)ncn(CC2(O)CCN(C(=O)[C@@H]3CCC(F)(F)C[C@H]3c3ccccc3)CC2)c1=O [Example 40, 5-amino-3-({1-[(1R,2R)-4,4-difluoro-2-phenylcyclohexane-1-carbonyl]-4-hydroxypiperidin-4-yl}methyl)-6-[4-fluoro-3-(trifluoromethoxy)phenoxy]pyrimidin-4(3H)-one] | 132 nM
8 | Nc1c(Oc2ccc(CCC3CCNCC3)cc2)ncn(CC2(O)CCN(C(=O)[C@@H]3CCC(F)(F)C[C@H]3c3ccccc3)CC2)c1=O [Example 112, 5-amino-3-([1-[(1R,2R)-4,4-difluoro-2-phenylcyclohexane-1-carbonyl]-4-hydroxypiperidin-4-yl]methyl)-6-[4-[2-(piperidin-4-yl)ethyl]phenoxy]pyrimidin-4(3H)-one] | 70.8 nM
9 | Nc1c(Oc2ccc(F)cc2)ncn(C[C@]2(O)CCN(C(=O)[C@@H]3CCC(F)(F)C[C@H]3c3ccccc3)CC2(F)F)c1=O [Example 79, 5-amino-3-({(4R)-1-[(1R,2R)-4,4-difluoro-2-phenylcyclohexane-1-carbonyl]-3,3-difluoro-4-hydroxypiperidin-4-yl}methyl)-6-(4-fluorophenoxy)pyrimidin-4(3H)-one] | 228 nM
10 | Nc1c(Oc2ccc(F)cc2)ncn(CC2(O)CCN(C(=O)[C@@H]3CC[C@@](O)(Cc4ccc(F)cc4)C[C@H]3c3ccccc3)CC2)c1=O (relative stereo) [Example 100, rel-5-amino-6-(4-fluorophenoxy)-3-[(1-{[(1R,2R,4S)-4-[(4-fluorophenyl)methyl]-4-hydroxy-2-phenylcyclohexyl]carbonyl}-4-hydroxypiperidin-4-yl)methyl]pyrimidin-4-one] | 244 nM

Other lines, results leading:

Row | IC50 | Structure (SMILES)
11 | 181 nM | COc1cc(OC)cc(Oc2ncn(CC3(O)CCN(C(=O)[C@@H]4CCC(F)(F)C[C@H]4c4ccccc4)CC3)c(=O)c2N)c1 [Example 7, 5-amino-3-({1-[(1R,2R)-4,4-difluoro-2-phenylcyclohexane-1-carbonyl]-4-hydroxypiperidin-4-yl}methyl)-6-(3,5-dimethoxyphenoxy)pyrimidin-4(3H)-one]
12 | 179 nM | C#C[C@@]1(OC)CC[C@@H](C(=O)N2CCC(O)(Cn3cnc(Oc4ccc(F)cc4)c(N)c3=O)CC2)[C@H](c2ccccc2)C1 [Example 155, 5-amino-3-[(1-{[(1R,2R,4R)-4-ethynyl-4-methoxy-2-phenylcyclohexyl]carbonyl}-4-hydroxypiperidin-4-yl)methyl]-6-(4-fluorophenoxy)pyrimidin-4-one]
13 | 227 nM | Nc1c(Oc2ccc(CN(C=O)CC(F)(F)F)cc2)ncn(CC2(O)CCN(C(=O)[C@@H]3CCC(F)(F)C[C@H]3c3ccccc3)CC2)c1=O [Example 74, N-[(4-{[5-amino-1-({1-[(1R,2R)-4,4-difluoro-2-phenylcyclohexane-1-carbonyl]-4-hydroxypiperidin-4-yl}methyl)-6-oxo-1,6-dihydropyrimidin-4-yl]oxy}phenyl)methyl]-N-(2,2,2-trifluoroethyl)formamide]
14 | 158 nM | Nc1c(Oc2ccc(CC(F)(F)F)cc2)ncn(CC2(O)CCN(C(=O)[C@@H]3CCC(F)(F)C[C@H]3c3ccccc3)CC2)c1=O [Example 37, 5-amino-3-({1-[(1R,2R)-4,4-difluoro-2-phenylcyclohexane-1-carbonyl]-4-hydroxypiperidin-4-yl}methyl)-6-[4-(2,2,2-trifluoroethyl)phenoxyl]pyrimidin-4(3H)-one]
15 | 100 nM | NC(=O)c1cccc(Oc2ncn(CC3(O)CCN(C(=O)[C@@H]4CCC(F)(F)C[C@H]4c4ccccc4)CC3)c(=O)c2N)c1 [Example 62, 3-{[5-amino-1-([1-[(1R,2R)-4,4-difluoro-2-phenylcyclohexane-1-carbonyl]-4-hydroxypiperidin-4-yl]methyl)-6-oxy-1,6-dihydropyrimidin-4-yl]oxy}benzamide]
16 | 93.8 nM | COc1cccc(Oc2ncn(CC3(O)CCN(C(=O)[C@@H]4CCC(F)(F)C[C@H]4c4ccccc4)CC3)c(=O)c2N)c1 [Example 4, 5-amino-3-({1-[(1R,2R)-4,4-difluoro-2-phenylcyclohexane-1-carbonyl]-4-hydroxypiperidin-4-yl}methyl)-6-(3-methoxyphenoxy)pyrimidin-4(3H)-one]
17 | 138 nM | CO[C@]1(C(=O)N2CCC(O)(Cn3cnc(Oc4ccc(F)cc4)c(N)c3=O)CC2)CC[C@H](C#Cc2nccn2C)C[C@@H]1c1ccccc1 [Example 160, 5-amino-6-(4-fluorophenoxy)-3-[(4-hydroxy-1-{[(1R,2R,4S)-1-methoxy-4-[2-(1-methylimidazol-2-yl)ethynyl]-2-phenylcyclohexyl]carbonyl}piperidin-4-yl)methyl]pyrimidin-4-one]
18 | 48.7 nM | Nc1c(Oc2ccc(CCC3CCCCN3)cc2)ncn(CC2(O)CCN(C(=O)[C@@H]3CCC(F)(F)C[C@H]3c3ccccc3)CC2)c1=O (stereo partly drawn) [Example 114, 5-amino-3-({1-[(1R,2R)-4,4-difluoro-2-phenylcyclohexane-1-carbonyl]-4-hydroxypiperidin-4-yl}methyl)-6-{4-[2-(piperidin-2-yl)ethyl]phenoxy}pyrimidin-4(3H)-one]
19 | 375 nM | NC(=O)c1ccc(Oc2ncn(CC3(O)CCN(C(=O)[C@@H]4CCC(F)(F)C[C@H]4c4ccccc4)CC3)c(=O)c2N)cc1Cl [Example 80, 4-{[5-amino-1-({1-[(1R,2R)-4,4-difluoro-2-phenylcyclohexane-1-carbonyl]-4-hydroxypiperidin-4-yl}methyl)-6-oxo-1,6-dihydropyrimidin-4-yl]oxy}-2-chlorobentamide]
20 | 6.5 nM | CNCc1ccc(Oc2ncn(CC3(O)CCN(C(=O)[C@@H]4CCC(F)(F)C[C@H]4c4ccccc4)CC3)c(=O)c2N)cc1 [Example 60, 5-amino-3-({1-((1R,2R)-4,4-difluoro-2-phenylcyclohexane-1-carbony]-4-hydroxypiperidin-4-yl}methyl)-6-{4-[(methylamino)methyl]phenoxy}pyrimidin-4(3H)-one]
21 | 304 nM | Nc1c(Oc2ccccc2F)ncn(CC2(O)CCN(C(=O)[C@@H]3CCC(F)(F)C[C@H]3c3ccccc3)CC2)c1=O [Example 2, 5-amino-3-({1-[(1R,2R)-4,4-difluoro-2-phenylcyclohexane-1-carbonyl]-4-hydroxypiperidin-4-yl}methyl)-6-(2-fluorophenoxy)pyrimidin-4(3H)-one]
22 | 1250 nM | O=C([C@@H]1CCC(F)(F)C[C@H]1c1ccccc1)N1CCC(O)(Cn2cnc(Oc3ccccc3)c(NCC(F)(F)F)c2=O)CC1 [Example 17, 3-({1-[(1R,2R)-4,4-difluoro-2-phenylcyclohexane-1-carbonyl]-4-hydroxypiperidin-4-yl}methyl)-6-phenoxy-5-[(2,2,2-trifluoroethyl)amino]pyrimidin-4(3H)-one]

Source: patent US20210221785A1, “AMINO-PYRIMIDONYL DERIVATIVES, A PROCESS FOR THEIR PREPARATION AND PHARMACEUTICAL COMPOSITIONS CONTAINING THEM” (LES LABORATOIRES SERVIER, priority 2018, published 2021)
